Values of other authors as cited in patent EP4660212A1, “POLYVINYL ALCOHOL-BASED POLYMER” (Japan Vam & Poval Co., Ltd., priority 2023, dated 2024).

Settings: water at 20°C

| SMILES | solubility in 100 mL (100 g) of water |
| --- | --- |
| CCOc1ccccc1C(N)=O [ethenzamide] | about 100 mg/100 g water |
| c1ccc2cc3ccccc3cc2c1 [anthracene] | about 0.13 mg/100 g water |
